According to US10961238B2, “Modulators of hedgehog (Hh) signaling pathway” (E-THERAPEUTICS PLC, priority 2016, dated 2021):

What follows are molecules tested on C3H10T1/2 cells (assay: C3H assay: differentiation of C3H10T1/2 cells by mSHH, measurement of alkaline phosphatase). Conditions: Mus musculus, C3H 10T1/2; C3H10T1/2 cells stimulated with mSHH for 72 hours; alkaline phosphatase activity; read-out: IC50 Ranges.
Format: cell-based, mouse

Structure (SMILES) | IC50 [nM]
CC(C)(C)OC(=O)N1CCC(S(=O)(=O)N2CCC(c3csc4cccnc34)CC2)CC1 [Compound 18, tert-butyl 4-(4-thieno[3,2-b]pyridin-3-ylpiperidin-1-yl)sulfonylpiper-idine-1-carboxylate] | 10 to 100
CC(C)(C)OC(=O)N1CCC(S(=O)(=O)N2CCC(c3c[nH]c4ncccc34)CC2)CC1 [Compound 19, tert-butyl 4-[4-(1H-pyrrolo[2,3-b]pyridin-3-yl)piperidin-1-yl]sulfonylpiper-idine-1-carboxylate] | 10 to 100
CC(C)(C)OC(=O)N1CCC(S(=O)(=O)N2CCC(C3CCOCC3)CC2)CC1 [Compound 20, tert-butyl 4-[4-(oxan-4-yl)piperidin-1-yl]sulfonylpiper-idine-1-carboxylate] | 1000 to 10000
O=C(Nc1ccccc1)N1CCC(S(=O)(=O)N2CCC(c3ccncc3)CC2)CC1 [Compound 21, N-phenyl-4-(4-pyridin-4-ylpiperidin-1-yl)sulfonylpiper-idine-1-carboxamide] | 1000 to 10000
CC(C)(C)OC(=O)N1CC(S(=O)(=O)N2CCC(c3ccncc3)CC2)C1 [Compound 22, tert-butyl 3-(4-pyridin-4-ylpiperidin-1-yl)sulfonylaze-tidine-1-carboxylate] | 100 to 1000
CC(C)C(CO)NC(=O)N1CC(S(=O)(=O)N2CCC(c3ccncc3)CC2)C1 (stereo not drawn) [Compound 24, 3-(4-pyridin-4-ylpiperidin-1-yl)sulfonyl-N-[1-hydroxy-3-methylbutan-2-yl]azetidine-1-carboxamide] | 100 to 1000
Cc1noc(C)c1NC(=O)N1CC(S(=O)(=O)N2CCC(c3cccnn3)CC2)C1 [Compound 25, N-(3,5-dimethyl-1,2-oxazol-4-yl)-3-(4-pyridazin-3-ylpiperidin-1-yl)sulfonylaze-tidine-1-carboxamide] | 1000 to 10000
COc1ccccc1OC(=O)N1CC(S(=O)(=O)N2CCC(c3ccncc3)CC2)C1 [Compound 27, (2-methoxyphenyl) 3-(4-pyridin-4-ylpiperidin-1-yl)sulfonylaze-tidine-1-carboxylate] | 10 to 100
COC1CCC(OC(=O)N2CC(S(=O)(=O)N3CCC(c4ccncc4)CC3)C2)CC1 (stereo not drawn) [Compound 28, (4-methoxycyclo-hexyl) 3-(4-pyridin-4-9-ylpiperidin-1-yl)sulfonylaze-tidine-1-carboxylate] | 100 to 1000
O=C(OC1CCOCC1)N1CC(S(=O)(=O)N2CCC(c3ccncc3)CC2)C1 [Compound 29, oxan-4-yl 3-(4-pyridin-4-ylpiperidin-1-yl)sulfonylaze-tidine-1-carboxylate] | 1000 to 10000
CC1(C)COCC(C)(C)N1C(=O)N1CC(S(=O)(=O)N2CCC(c3ccncc3)CC2)C1 [Compound 32, [3-(4-pyridin-4-ylpiperidin-1-yl)sulfonylaze-tidin-1-yl]-(3,3,5,5-tetramethylmor-pholin-4-yl)methanone] | 100 to 1000
Cc1noc(C)c1NC(=O)N1CC(S(=O)(=O)N2CCC(c3cnc4c(c3)CCO4)CC2)C1 [Compound 36, 3-[4-(2,3-dihydrofuro[2,3-b]pyridin-5-yl)piperidin-1-yl]sulfonyl-N-(3,5-dimethyl-1,2-oxazol-4-yl)azetidine-1-carboxamide] | 1000 to 10000
Cc1noc(C)c1NC(=O)N1CC(S(=O)(=O)N2CCC(c3cnc4occc4c3)CC2)C1 [Compound 37, N-(3,5-dimethyl-1,2-oxazol-4-yl)-3-(4-furo[2,3-b]pyridin-5-ylpiperidin-1-yl)sulfonylaze-tidine-1-carboxamide] | 1000 to 10000
O=C(OC1CCCCC1)N1CC(S(=O)(=O)N2CCC(c3cnc4occc4c3)CC2)C1 [Compound 38, cyclohexyl 3-(4-furo[2,3-b]pyridin-5-ylpiperidin-1-yl)sulfonylaze-tidine-1-carboxylate] | 100 to 1000
Cc1noc(C)c1NC(=O)N1CC(S(=O)(=O)N2CCC(c3c[nH]c4cccnc34)CC2)C1 [Compound 39, N-(3,5-dimethyl-1,2-oxazol-4-yl)-3-[4-(1H-pyrrolo[3,2-b]pyridin-3-yl)piperidin-1-yl]sulfonylaze-tidine-1-carboxamide] | 10 to 100
O=C(OC1CCCCC1)N1CC(S(=O)(=O)N2CCC(c3c[nH]c4cccnc34)CC2)C1 [Compound 41, cyclohexyl 3-[4-(1H-pyrrolo[3,2-b]pyridin-3-yl)piperidin-1-yl]sulfonylaze-tidine-1-carboxylate] | 10 to 100
Cc1noc(C)c1NC(=O)N1CC(S(=O)(=O)N2CCC(c3c[nH]c4nccnc34)CC2)C1 [Compound 43, N-(3,5-dimethyl-1,2-oxazol-4-yl)-3-[4-(5H-pyrrolo [2,3-b]pyrazin-7-yl)piperidin-1-yl]sulfonylaze-tidine-1-carboxamide] | 10 to 100
COc1ccc(C2CCN(S(=O)(=O)C3CN(C(=O)OC(C)(C)C)C3)CC2)nc1 [Compound 47, tert-butyl 3-[4-(5-methoxypyridin-2-yl)piperidin-1-yl]sulfonylaze-tidine-1-carboxylate] | 1000 to 10000
CC(C)(C)OC(=O)N1CC(S(=O)(=O)N2CCC(c3c[nH]c4cccnc34)CC2)C1 [Compound 49, tert-butyl 3-[4-(1H-pyrrolo[3,2-b]pyridin-3-yl)piperidin-1-yl]sulfonylaze-tidine-1-carboxylate] | 10 to 100
CN1CCN(CCCOC(=O)N2CC(S(=O)(=O)N3CCC(c4c[nH]c5ncccc45)CC3)C2)CC1 [Compound 53, 3-(4-methylpiperazin-1-yl)propyl 3-[4-(1H-pyrrolo [2,3-b]pyridin-3-yl)piperidin-1-yl]sulfonylaze-tidine-1-carboxylate] | 1000 to 10000
O=C(OCCN1CCOCC1)N1CC(S(=O)(=O)N2CCC(c3c[nH]c4ncccc34)CC2)C1 [Compound 54, 2-morpholin-4-ylethyl 3-[4-(1H-pyrrolo [2,3-b]pyridin-3-yl)piperidin-1-yl]sulfonylaze-tidine-1-carboxylate] | 10 to 100
Cc1noc(C)c1CNC(=O)N1CC(S(=O)(=O)N2CCC(c3c[nH]c4ncccc34)CC2)C1 [Compound 55, N-[(3,5-dimethyl-1,2-oxazol-4-yl)methyl]-3-[4-(1H-pyrrolo[2,3-b]pyridin-3-yl)piperidin-1-yl]sulfonylaze-tidine-1-carboxamide] | 10 to 100

Next, values leading:

IC50 [nM] | Structure (SMILES)
10 to 100 | CC(C)(C)OC(=O)N1CC(S(=O)(=O)N2CCC(c3csc4cccnc34)CC2)C1 [Compound 17, tert-butyl 3-(4-thieno[3,2-b]pyridin-3-ylpiperidin-1-yl)sulfonylaze-tidine-1-carboxylate]
100 to 1000 | CC(C)(C)OC(=O)N1CCC(S(=O)(=O)N2CCC(c3ccncc3)CC2)CC1 [Compound 23, tert-butyl 4-(4-pyridin-4-ylpiperidin-1-yl)sulfonylpiper-idine-1-carboxylate]
1000 to 10000 | O=C(OCC1CCCO1)N1CC(S(=O)(=O)N2CCC(c3ccncc3)CC2)C1 (stereo not drawn) [Compound 30, (oxolan-2-yl)methyl 3-(4-pyridin-4-ylpiperidin-1-yl)sulfonylaze-tidine-1-carboxylate]
100 to 1000 | CN(C(=O)N1CC(S(=O)(=O)N2CCC(c3ccncc3)CC2)C1)C(C)(C)C [Compound 31, N-tert-butyl-N-methyl-3-(4-pyridin-4-ylpiperidin-1-yl)sulfonylaze-tidine-1-carboxamide]
10 to 100 | CC(C)(C)CC(C)(C)NC(=O)N1CC(S(=O)(=O)N2CCC(c3ccncc3)CC2)C1 [Compound 33, 3-(4-pyridin-4-ylpiperidin-1-yl)sulfonyl-N-(2,4,4-trimethylpentan-2-yl)azetidine-1-carboxamide]
100 to 1000 | C[C@@H]1CN(C(=O)N2CC(S(=O)(=O)N3CCC(c4cnc5occc5c4)CC3)C2)C[C@H](C)O1 [Compound 35, [(2R,6S)-2,6-dimethylmorpholin-4-yl]-[3-(4-furo[2,3-b]pyridin-5-ylpiperidin-1-yl)sulfonylaze-tidin-1-yl]methanone]
1000 to 10000 | O=C(OC1CCCCC1)N1CC(S(=O)(=O)N2CCC(c3cn(C(=O)OC4CCCCC4)c4cccnc34)CC2)C1 [Compound 40, cyclohexyl 3-[1-(1-cyclohexyloxycarbonylazetidin-3-yl)sulfonylpiper-idin-4-yl]pyrrolo [3,2-b]pyridine-1-carboxylate]
1000 to 10000 | Cc1noc(C)c1NC(=O)N1CC(S(=O)(=O)N2CCC(c3cn(C)c4nccnc34)CC2)C1 [Compound 42, N-(3,5-dimethyl-1,2-oxazol-4-yl)-3-[4-(5-methylpyrrolo [2,3-b]pyrazin-7-yl)piperidin-1-yl]sulfonylaze-tidine-1-carboxamide]
10 to 100 | O=C(OC1CCCCC1)N1CC(S(=O)(=O)N2CCC(c3c[nH]c4nccnc34)CC2)C1 [Compound 44, cyclohexyl 3-[4-(5H-pyrrolo[2,3-b]pyrazin-7-yl)piperidin-1-yl]sulfonylaze-tidine-1-carboxylate]
1000 to 10000 | CC1CC(c2c[nH]c3ncccc23)CCN1S(=O)(=O)C1CN(C(=O)OC(C)(C)C)C1 (stereo not drawn) [Compound 46, tert-butyl 3-[2-methyl-4-(1H-pyrrolo [2,3-b]pyridin-3-yl)piperidin-1-yl]sulfonylaze-tidine-1-carboxylate]
100 to 1000 | COc1ccc(C2CCN(S(=O)(=O)C3CN(C(=O)OC(C)(C)C)C3)CC2)cn1 [Compound 48, tert-butyl 3-[4-(6-methoxypyridin-3-yl)piperidin-1-yl]sulfonylaze-tidine-1-carboxylate]
10 to 100 | CN(C)CC(C)(C)OC(=O)N1CC(S(=O)(=O)N2CCC(c3c[nH]c4ncccc34)CC2)C1 [Compound 50, [1-(dimethylamino)-2-methylpropan-2-yl] 3-[4-(1H-pyrrolo[2,3-b]pyridin-3-yl)piperidin-1-yl]sulfonylaze-tidine-1-carboxylate]
100 to 1000 | CN1CCC(COC(=O)N2CC(S(=O)(=O)N3CCC(c4c[nH]c5ncccc45)CC3)C2)CC1 [Compound 51, (1-methylpiperidin-4-yl)methyl 3-[4-(1H-pyrrolo [2,3-b]pyridin-3-yl)piperidin-1-yl]sulfonylaze-tidine-1-carboxylate]
100 to 1000 | CCN(CC)CCOC(=O)N1CC(S(=O)(=O)N2CCC(c3c[nH]c4ncccc34)CC2)C1 [Compound 52, 2-(diethylamino) ethyl 3-[4-(1H-pyrrolo [2,3-b]pyridin-3-yl)piperidin-1-yl]sulfonylaze-tidine-1-carboxylate]
